Data taken from patent US20170224654A1, “PHARMACEUTICAL COMPOSITIONS AND METHODS FOR COUNTERING CHEMOTHERAPY INDUCED CARDIOTOXICITY” (Stem Cell Theranostics, Inc., priority 2016, published 2017).
pEC50: −log10 of the molar value. “Also recorded” adds a separate entry of the source.

Key:
[1] = molecular target: T1, TOPOIIα (Homo sapiens, UniProt P11388); test: kDNA decatenation assay; type: biochemical; details: for TOPOIIα enzymatic inhibition (in words): DHM: even at >200 μM
T1 construct: purchased Inspiralis
T1 sequence (P11388 whole entry): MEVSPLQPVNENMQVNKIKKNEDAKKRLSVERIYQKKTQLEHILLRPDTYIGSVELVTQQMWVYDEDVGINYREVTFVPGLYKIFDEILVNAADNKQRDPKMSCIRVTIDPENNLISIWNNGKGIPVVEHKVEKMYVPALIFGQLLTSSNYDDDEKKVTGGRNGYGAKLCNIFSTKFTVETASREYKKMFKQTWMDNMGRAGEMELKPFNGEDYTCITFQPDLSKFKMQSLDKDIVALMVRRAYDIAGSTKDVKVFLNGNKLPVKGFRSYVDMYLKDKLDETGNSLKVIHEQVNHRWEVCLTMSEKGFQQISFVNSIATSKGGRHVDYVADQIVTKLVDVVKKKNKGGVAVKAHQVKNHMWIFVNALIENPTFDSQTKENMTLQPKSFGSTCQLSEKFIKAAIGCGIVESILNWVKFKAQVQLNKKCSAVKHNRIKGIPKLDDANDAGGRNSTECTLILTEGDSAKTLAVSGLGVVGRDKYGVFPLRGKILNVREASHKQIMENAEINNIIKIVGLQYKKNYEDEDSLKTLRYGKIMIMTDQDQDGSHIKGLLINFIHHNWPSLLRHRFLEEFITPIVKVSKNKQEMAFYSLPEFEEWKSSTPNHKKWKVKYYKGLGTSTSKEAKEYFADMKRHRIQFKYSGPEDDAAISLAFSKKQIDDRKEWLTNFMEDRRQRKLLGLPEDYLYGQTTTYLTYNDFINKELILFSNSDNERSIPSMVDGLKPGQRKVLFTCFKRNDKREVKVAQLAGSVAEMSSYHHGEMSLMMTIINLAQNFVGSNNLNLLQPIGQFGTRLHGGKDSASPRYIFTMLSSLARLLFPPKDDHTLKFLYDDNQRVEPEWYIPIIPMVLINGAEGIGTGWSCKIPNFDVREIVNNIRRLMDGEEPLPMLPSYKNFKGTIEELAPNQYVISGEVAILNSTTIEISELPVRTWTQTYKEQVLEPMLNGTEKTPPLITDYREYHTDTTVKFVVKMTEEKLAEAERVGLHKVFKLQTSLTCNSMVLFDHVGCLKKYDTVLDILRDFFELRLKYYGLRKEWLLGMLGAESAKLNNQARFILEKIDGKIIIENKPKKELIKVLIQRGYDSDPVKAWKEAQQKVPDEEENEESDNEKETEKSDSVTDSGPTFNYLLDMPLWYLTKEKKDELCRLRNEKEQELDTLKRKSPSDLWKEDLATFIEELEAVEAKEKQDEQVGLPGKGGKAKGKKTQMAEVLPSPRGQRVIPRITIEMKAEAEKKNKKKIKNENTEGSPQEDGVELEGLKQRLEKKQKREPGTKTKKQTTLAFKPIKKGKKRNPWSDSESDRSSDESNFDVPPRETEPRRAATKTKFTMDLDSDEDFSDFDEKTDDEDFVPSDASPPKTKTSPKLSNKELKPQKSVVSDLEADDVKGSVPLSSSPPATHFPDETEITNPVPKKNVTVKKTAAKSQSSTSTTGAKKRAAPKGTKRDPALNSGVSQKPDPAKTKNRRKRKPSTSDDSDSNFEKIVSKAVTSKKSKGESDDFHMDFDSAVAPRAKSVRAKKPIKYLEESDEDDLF

[2] = molecular target: T2, TOPOIIβ (Homo sapiens, UniProt Q02880); test: kDNA decatenation assay; type: biochemical; details: for TOPOIIβ enzymatic inhibition (in words): DHM: even at >200 μM
T2 construct: purchased Inspiralis
T2 sequence (Q02880 whole entry): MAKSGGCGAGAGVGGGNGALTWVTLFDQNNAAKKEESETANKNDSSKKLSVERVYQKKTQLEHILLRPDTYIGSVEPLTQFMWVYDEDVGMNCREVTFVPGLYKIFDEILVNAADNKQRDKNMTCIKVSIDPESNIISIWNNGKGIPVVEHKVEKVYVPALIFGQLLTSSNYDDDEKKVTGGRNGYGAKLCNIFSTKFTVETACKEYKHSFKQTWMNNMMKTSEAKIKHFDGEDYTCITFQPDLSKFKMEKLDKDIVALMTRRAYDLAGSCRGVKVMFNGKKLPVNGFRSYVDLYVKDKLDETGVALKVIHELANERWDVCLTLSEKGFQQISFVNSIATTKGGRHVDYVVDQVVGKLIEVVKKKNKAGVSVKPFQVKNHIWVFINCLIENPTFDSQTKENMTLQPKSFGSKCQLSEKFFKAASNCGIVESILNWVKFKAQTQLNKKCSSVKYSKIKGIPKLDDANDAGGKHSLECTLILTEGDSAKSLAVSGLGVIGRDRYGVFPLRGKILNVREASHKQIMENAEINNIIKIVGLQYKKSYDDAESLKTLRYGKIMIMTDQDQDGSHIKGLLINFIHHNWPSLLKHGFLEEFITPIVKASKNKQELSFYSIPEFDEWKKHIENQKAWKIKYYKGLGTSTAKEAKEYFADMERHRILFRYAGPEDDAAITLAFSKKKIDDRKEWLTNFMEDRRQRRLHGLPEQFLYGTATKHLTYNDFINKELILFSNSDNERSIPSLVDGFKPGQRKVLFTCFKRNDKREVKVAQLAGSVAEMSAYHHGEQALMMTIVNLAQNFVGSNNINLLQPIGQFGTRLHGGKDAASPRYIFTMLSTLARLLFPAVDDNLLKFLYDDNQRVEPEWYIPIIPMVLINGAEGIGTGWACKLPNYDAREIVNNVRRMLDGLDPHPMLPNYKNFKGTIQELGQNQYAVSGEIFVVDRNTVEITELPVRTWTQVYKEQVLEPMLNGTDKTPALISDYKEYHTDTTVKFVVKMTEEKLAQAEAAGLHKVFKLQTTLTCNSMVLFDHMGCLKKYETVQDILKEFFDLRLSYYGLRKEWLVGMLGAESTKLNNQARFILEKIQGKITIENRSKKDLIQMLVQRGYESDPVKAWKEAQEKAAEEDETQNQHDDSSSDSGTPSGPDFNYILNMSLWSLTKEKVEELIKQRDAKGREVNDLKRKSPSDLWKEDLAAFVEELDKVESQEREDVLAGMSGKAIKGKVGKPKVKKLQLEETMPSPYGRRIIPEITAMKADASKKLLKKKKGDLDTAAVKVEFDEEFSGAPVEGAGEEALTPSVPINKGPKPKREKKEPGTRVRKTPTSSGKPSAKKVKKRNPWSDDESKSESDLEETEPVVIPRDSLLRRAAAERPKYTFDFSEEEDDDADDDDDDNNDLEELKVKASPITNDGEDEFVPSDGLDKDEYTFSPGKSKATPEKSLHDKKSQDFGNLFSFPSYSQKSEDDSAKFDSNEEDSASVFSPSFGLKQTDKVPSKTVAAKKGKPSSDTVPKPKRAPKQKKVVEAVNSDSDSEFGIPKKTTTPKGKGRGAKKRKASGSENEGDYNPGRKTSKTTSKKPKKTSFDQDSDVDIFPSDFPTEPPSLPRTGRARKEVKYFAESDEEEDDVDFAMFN

[3] = test system: TOPOII enzymes (TOPOIIα and TOPOIIβ); test: kDNA decatenation assay, TOPOIIα and TOPOIIβ jointly; type: biochemical; details: discussion of Table 1
Description: 200 ng of kinetoplast DNA (kDNA) was incubated with one enzymatic unit of TOPOIIα or TOPOIIβ enzyme (Inspiralis) and with various concentrations of MYR or DEX at 37° C. for 30 min. The reaction was then separated on 1% agarose gel for visualization of decatenated DNA (bottom band). The efficiency of catalytic inhibition was quantified by measuring the relative intensity of the band.

[4] = test system: Doxorubicin treated human iPSC-derived cardiomyocytes; test: iPSC-CM protection of MYR analogs against doxorubicin; type: cell-based
[5] = test system: Human iPSC-derived cardiomyocytes; test: Cytotoxicity of MYR analogs to cardiomyocytes; details: for cytotoxicity / toxic effects to cardiomyocytes (in words): at or below 100 μM as stated; for Toxicity: 100 μM

Structure (SMILES) | TOPOIIα Inhibition [1] | TOPOIIβ Inhibition [2] | TOPOII (TOPOIIα and TOPOIIβ) inhibition (in words) [3] | cardioprotection (in words) ([4]; discussion of Table 1) | further results
O=C1c2ccc(O)cc2OC(c2cc(O)c(O)c(O)c2)C1O (stereo in doubt) [Compound 30, dihydrorobinetin] | − | − |  |  | TOPOIIα enzymatic inhibition (in words) [1]: no inhibitory activity; TOPOIIβ enzymatic inhibition (in words) [2]: no inhibitory activity
O=c1c(O)c(-c2ccccc2)oc2cc(O)cc(O)c12 [3,5,7-trihydroxyflavone] |  |  | neither cardioprotection nor TOPOII inhibition | neither cardioprotection nor TOPOII inhibition | cytotoxicity / toxic effects to cardiomyocytes (in words) [5]: generalized cytotoxicity
COc1ccc2c(=O)c(OC)c(-c3cc(OC)c(OC)c(OC)c3)oc2c1 [3,7,3′,4′,5′-O-pentamethylrobinetin] |  |  | entirely failed to display cardioprotection or TOPOII inhibition | entirely failed to display cardioprotection or TOPOII inhibition | 
COc1cc(-c2oc3cc(O)cc(O)c3c(=O)c2O)cc(OC)c1OC [3′,4′,5′-O-trimethylmyricetin] |  |  | entirely failed to display cardioprotection or TOPOII inhibition | entirely failed to display cardioprotection or TOPOII inhibition | 
COc1cc(-c2oc3cc(O)ccc3c(=O)c2O)cc(OC)c1OC [3′,4′,5′-O-trimethylrobinetin] |  |  | entirely failed to display cardioprotection or TOPOII inhibition | entirely failed to display cardioprotection or TOPOII inhibition | 
COc1cc(-c2oc3cc(O)cc(O)c3c(=O)c2O)cc(OC)c1O [3′,5′-O-dimethylmyricetin] |  |  | neither cardioprotection nor TOPOIIα and TOPOIIβ inhibition | neither cardioprotection nor TOPOIIα and TOPOIIβ inhibition | 
COc1cc(-c2oc3cc(O)cc(O)c3c(=O)c2O)cc(O)c1O [3′-O-methylmyricetin] |  |  | failed to inhibit TOPOII enzymes | conferred cardioprotection | pEC50 ([4]; Homo sapiens, Cardiomyocyte, discussion of Table 1, read-out: EC50 / potency for cardioprotection): ~4.23; cytotoxicity / toxic effects to cardiomyocytes (in words) [5]: without showing generalized cytotoxicity
COc1c(O)cc(-c2oc3cc(O)cc(O)c3c(=O)c2O)cc1O [4′-O-methylmyricetin] |  |  | without TOPOII inhibition | conferred cardioprotection | 
COc1ccc2c(=O)c(O)c(-c3cc(OC)c(OC)c(OC)c3)oc2c1 [7,3′,4′,5′-O-tetramethylrobinetin] |  |  | entirely failed to display cardioprotection or TOPOII inhibition | entirely failed to display cardioprotection or TOPOII inhibition | 
O=c1cc(-c2cc(O)c(O)c(O)c2)oc2cc(O)ccc12 [7,3′,4′,5′-tetrahydroxyflavone] |  |  | did not inhibit TOPOII enzymes | displayed cardioprotection | 
O=c1c(O)c(-c2cc(O)c(O)c(O)c2)oc2cc(O)ccc12 [Compound 2, 3,7,3′,4′,5′-pentahydroxyflavone] |  |  |  |  | TOPOIIα enzymatic inhibition (in words) [1]: high level of inhibition; TOPOIIβ enzymatic inhibition (in words) [2]: high level of inhibition; Toxicity [5]: −
O=c1cc(-c2cc(O)c(O)c(O)c2)oc2cc(O)cc(O)c12 [Compound 3, 5,7,3′,4′,5′-pentahydroxyflavone] |  |  | TOPOII inhibition | displayed cardioprotection | cytotoxicity / toxic effects to cardiomyocytes (in words) ([5]; listed as tricetin): exhibits some toxic effects at concentrations less than 100 μM; also recorded: low level of cytotoxicity at 100 μM
O=c1c(O)c(-c2ccc(O)c(O)c2)oc2cc(O)cc(O)c12 [Compound 4, 3,5,7,3′,4′-pentahydroxyflavone] |  |  | exhibited TOPOII inhibition | conferred cardioprotection | cytotoxicity / toxic effects to cardiomyocytes (in words) [5]: high level of general cytoxicity
O=c1cc(-c2cc(O)c(O)c(O)c2)oc2cc(O)ccc12 [Compound 6, 7,3′,4′,5′-tetrahydroxyflavone] | − | − |  |  | Toxicity [5]: −
O=c1cc(-c2cc(O)c(O)c(O)c2)oc2ccccc12 [Compound 8, 3′,4′,5′-trihydroxyflavone] | − | − |  |  | Toxicity [5]: −
O=c1cc(-c2ccc(O)c(O)c2)oc2cc(O)cc(O)c12 [Compound 9, 5,7,3′,4′-tetrahydroxyflavone] | − | − |  |  | 

Structure (SMILES) | TOPOIIα Inhibition [1] | TOPOIIβ Inhibition [2] | TOPOII (TOPOIIα and TOPOIIβ) inhibition (in words) [3] | cardioprotection (in words) ([4]; discussion of Table 1) | further results
O=c1c(O)c(-c2ccc(O)cc2)oc2cc(O)ccc12 [Compound 10, 3,7,4′-trihydroxyflavone] | − | − |  |  | cytotoxicity / toxic effects to cardiomyocytes (in words) [5]: exhibited toxic effects at concentrations below 100 μM
O=c1cc(-c2ccc(O)c(O)c2)oc2cc(O)ccc12 [Compound 11, 7,3′,4′-trihydroxyflavone] | − | − |  |  | 
O=c1c(O)c(-c2ccc(O)c(O)c2)oc2ccccc12 [Compound 12, 3,3′,4′-trihydroxyflavone] | − | − |  |  | 
O=c1cc(-c2ccc(O)cc2)oc2ccccc12 [Compound 17, 4′-hydroxyflavone] |  |  |  |  | Emax ([4]; Homo sapiens, iPSC-CM, initial screen at 10 μM or 100 μM, read-out: iPSC-CM protection Max Effect (%)): < 30%; Toxicity [5]: −
O=c1ccoc2ccccc12 [Compound 29, chromone] |  |  |  |  | Toxicity [5]: −
COc1cc(-c2oc3cc(O)cc(O)c3c(=O)c2O)cc(O)c1O [Compound 31, 3′-O-methylmyricetin] | − | − |  |  | 
COc1c(O)cc(-c2oc3cc(O)cc(O)c3c(=O)c2O)cc1O [Compound 32, 4′-O-methylmyricetin] | − | − |  |  | 
COc1cc(-c2oc3cc(O)cc(O)c3c(=O)c2O)cc(OC)c1O [Compound 33, 3′,5′-O-dimethylmyricetin] | − | − |  |  | 
COc1cc(-c2oc3cc(O)cc(O)c3c(=O)c2O)cc(OC)c1OC [Compound 34, 3′,4′,5′-O-trimethylmyricetin] | − | − |  |  | 
COc1cc(-c2oc3cc(O)ccc3c(=O)c2O)cc(OC)c1OC [Compound 35, 3′,4′,5′-O-trimethylrobinetin] | − | − |  |  | 
COc1ccc2c(=O)c(O)c(-c3cc(OC)c(OC)c(OC)c3)oc2c1 [Compound 36, 7,3′,4′,5′-O-tetramethylrobinetin] | − | − |  |  | 
COc1ccc2c(=O)c(OC)c(-c3cc(OC)c(OC)c(OC)c3)oc2c1 [Compound 37, 3,7,3′,4′,5′-O-pentamethylrobinetin] | − | − |  |  | 
O=c1ccoc2cc(O)ccc12 [Compound 38, 7-hydroxy-4-chromone] | − | − |  |  | 
O=c1ccoc2ccccc12 [chromone] |  |  | Nor did either compound confer TOPOIIβ or a inhibition | no positive effect in cardiac protection | 
O=C1c2c(O)cc(O)cc2O[C@H](c2cc(O)c(O)c(O)c2)[C@H]1O [dihydromyricetin] |  |  |  |  | TOPOIIα enzymatic inhibition (in words) [1]: did not inhibit; TOPOIIβ enzymatic inhibition (in words) [2]: did not inhibit
